This is an account of results in patent US8597901B2, “2,5-diketo-L-gluconic acid reductases and methods of use” (Danisco US Inc., priority 2000, dated 2013).

Like-named read-outs stand apart in the source and are kept apart here.

As usually defined, the Km is the substrate concentration at which the rate is half of its maximum.

The test system of test [1] is environmental 2,5-diketo-D-gluconic acid reductase (form not stated). As to conditions: read-out: apparent Km of stimulation by inorganic phosphate, NADH-dependent activity.
Test [2] deals with environmental 2,5-diketo-D-gluconic acid reductase DKGRc (pI-14, SEQ ID NO: 8) variant R238Q. Briefly: Kinetic parameters of purified R238Q mutant of DKGRc. The class given is biochemical, environmental DNA (uncultured, soil). The source says:
Site specific mutants of DKGRc were constructed by overlap extension PCR. […] The oligonucleotides:
were complementary to the antisense and sense strands, respectively, and introduced the changes K232Q and R238Q, respectively. The bases that differ from the native sequence are underlined. Each oligonucleotide was paired with the appropriate adapter primer (i.e. primers for amplifying the gene for insertion into expression vectors) in PCR's to generate fragments of the DKGRc gene that incorporated one of the two changes. Primers were also synthesized that matched the native DNA sequence. When used with the appropriate adapter primer, these generated an unmodified fragment of the gene. […] The amplification of the full-length genes was driven by addition of both adapter primers.

For the molecule `O=P(O)(O)O` [Pi], the Km in test [1] stood at 1300 µM.

Regarding `NC(=O)C1=CN([C@@H]2O[C@H](COP(=O)(O)OP(=O)(O)OC[C@H]3O[C@@H](n4cnc5c(N)ncnc54)[C@H](O)[C@@H]3O)[C@@H](O)[C@H]2O)C=CC1` [NADH], in test [2] (R238Q versus native DKGRc), the “Km for NADH, effect of mutation” value is given as “not affected by the mutation” and the “catalytic efficiency with NADH as cosubstrate, increase over native” value was found to be 7 fold. Besides, the kcat in test [2] (R238Q, NADH as cosubstrate) stood at 12 S^−1. Also, the Km in test [2] (R238Q, NADH as cosubstrate, read-out: Km, nadh) was found to be 1900 µM.

Consider `O=C(O)C(=O)[C@@H](O)[C@H](O)C(=O)CO` [DKG, 2,5-diketo-D-gluconic acid], for which the “Km for 2,5-diketo-D-gluconic acid, increase over native” value in test [2] (R238Q versus native DKGRc) is recorded as 7.7 fold. Further, in test [2] (R238Q, read-out: Km for 2,5-diketo-D-gluconic acid), the Michaelis-Menten constant (Km) was found to be 440 µM.

As for `NC(=O)C1=CN([C@@H]2O[C@H](COP(=O)(O)OP(=O)(O)OC[C@H]3O[C@@H](n4cnc5c(N)ncnc54)[C@H](OP(=O)(O)O)[C@@H]3O)[C@@H](O)[C@H]2O)C=CC1` [NADPH], the “Km for NADPH, increase over native” value in test [2] (R238Q versus native DKGRc) is listed as 18 fold. In test [2] (R238Q versus native DKGRc, NADPH), the “kcat, increase over native” value is reported as 3.5 fold. Further, the Km in test [2] (read-out: Km, nadph, R238Q, NADPH as cosubstrate) was 55 µM.
